Measured values taken from patent US6632981B1, “DNA sequences encoding polypeptides having beta-1,3-glucanase activity” (Novartis Finance Corporation, priority 1988, dated 2003).

What was measured:
[1] = system: chemically regulatable chimeric genes coding for GUS, AHAS or BT; experiment: Primer extension assay for mRNA of chemically regulatable chimeric genes; assay type: in vivo; conditions: callus or regenerated plant material from transgenic plants; level proportional to amount of regulator applied
Procedure: 50 g of total RNA is lyophilized in a 500 l Eppendorf tube. The RNA is resuspended in 30 l of radiolabeled probe solution and heated to 70′ C. for 10 minutes. The tube is slowly cooled to 37° C. and allowed to incubate overnight. Without removing the tube from the 37° C. water bath, 2 l of 10×reverse-transcriptase buffer (500 mM Tris-HCl, pH 7.5, 400 mM KCl, 30 mM MgCl2), 1 l 5 mg/ml bovine serum albumin, 5 l 100 mM dithiothreitol, 5 l 10×dNTPs (10 mM of each dNTP in H2O), 3 l H 20, 2 l RNasin (80 units), and 2 l reverse transcriptase (400 units) are added and the reaction is incubated at 37° C. for 30 minutes. To stop the reaction, 5 l of 3 M sodium acetate, pH 5, and 150 l absolute ethanol are added. The tube is left at −20° C. for 30 minutes, the precipitate is collected by centrifugation, washed with 80% ethanol and allowed to air-dry. The precipitate is resuspended in 10-20 l of loading dye (90% formamide, 0.05% bromophenol blue, 0.05% xylene cyanol, 1 mM EDTA) and the extension products are separated on a 6% sequencing gel (Maniatis, T. et al., supra). Extension products are visualized by autoradiography.
Plant materials induced and harvested as in Examples 140 to 142 are assayed for the induction of mRNA species by the isolation of RNA and the primer extension assay as described in Example 6.
The level of mRNA is proportional to the amount of regulator applied.

[2] = system: SAR response; experiment: Chemical induction of SAR in nahG-expressing plants; assay type: in vivo, Nicotiana tabacum cv Xanthi-nc; conditions: plants of lines nahG-3, -8 and -10 (blocked in SAR response to disease infection) treated with the inducing chemical
Description: Three lines, nahG-3, -8 and -10, were shown above to express high levels of nahG mRNA and salicylate hydroxylase protein, and to be blocked in their SAR response to disease infection.

[3] = system: PR-1a promoter fused to the GUS reporter gene; experiment: Chemical regulation of PR-1a promoter/GUS in nahG-expressing plants; assay type: in vivo; conditions: progeny of PR-1a promoter/GUS plants crossed to nahG-3, -8 and -10
Description: Consequently, the chemical regulation of the PR-1a gene promoter can be utilized without the activation of the endogenous cell signal SA.

[4] = system: PR-1a promoter fused to a gene encoding the delta-endotoxin of Bacillus thuringensis; experiment: Chemical regulation of PR-1a promoter/Bacillus thuringiensis delta-endotoxin gene in nahG-expressing plants; assay type: in vivo; conditions: progeny of PR-1a promoter/delta-endotoxin plants crossed to nahG-3, -8 and -10
[5] = system: salicylic acid; experiment: Antagonism of the salicylic acid cell signal on exogenous application to a plant; assay type: in vivo; conditions: applied exogenously to a plant
Description: Those skilled in the art will appreciate that other means can be employed to achieve the same effect. For instance, a second method involves the expression or overexpression in a transformed plant of a gene encoding an enzyme which catalyzes the modification; e.g., degradation, of a metabolic precursor of the signal molecule so that the plant is rendered incapable of producing the signal molecule. A third method involves the external application to the plant of antagonists of the target cell signal. […] Instead, inhibition of the cell signal response is effected. […] See, Yang and Hoffman, Ann. Rev. Plant Physiol. 35:155-189 (1984).

[6] = system: PR-1 promoter-LUC gene fusion; experiment: Chemical induction of the Arabidopsis PR-1 promoter-LUC gene fusion; assay type: in vivo
Description: pAtPR1-R was cleaved with XhoI and SacI and transferred to SalI/SacI cleaved pCIB200 to create a binary vector construction (pAtPR1-S) suitable for Arabidopsis transformation (see example 28). pAtPR1-S was then transferred to Agrobacterium tumefaciens strain A136/pCIB542 for transfer to Arabidopsis Dijon-0 using the method described by Wen-jun and Forde, Nucl. Acids Res. 17: 8385-8386 (1989). T2 or […] lines carrying the PR1-LUC transgene in the homozygous state were generated for chemical induction analysis.
Leaves of transgenic Arabidopsis lines carrying the PR-1 promoter-LUC gene fusion were treated by spraying with 0.15 g/ml INA (isonicotinic acid) for 48 h. Five days later, sprayed leaves were analyzed for luciferase activity using the Promega Luciferase Assay System (Cat. #E 1500). […] In other assays, luciferase activity was measured by imaging lines for bioluminescence using intensified cameras (VIM) and photon-counting image processors (ARGUS-50 or ARGUS-100) from Hamamatsu Photonic Systems (Bridgewater, N.J.). Leaves were sprayed with INA and subsequently with a 5 mM solution of D-luciferin (Analytical Bioluminescence Laboratories, San Diego, Calif.) 24 h before and then immediately before imaging.

O=C(O)c1cccc2nnsc12 [benzo-1,2,3-thiadiazole-7-carboxylic acid]
level of mRNA of the chimeric gene (GUS, AHAS or BT primer), primer extension assay [1]: elevated levels of mRNA
SAR response [2]: shown to possess the SAR response
GUS expression [3]: express GUS
endotoxin gene expression [4]: express the endotoxin gene

CC[Si](CC)(CC)c1ccccc1C(=O)O [o-triethylsilyl benzoic acid]
effect on the salicylic acid cell signal [5]: antagonistic effect

CCC(C)N(N)C(=O)c1cccc2nnsc12 (centres unmarked) [benzo-1,2,3-thiadiazole-7-carboxylic acid N-sec-butylhydrazide]
level of mRNA of the chimeric gene (GUS, AHAS or BT primer), primer extension assay [1]: elevated levels of mRNA

O=C(O)c1cc(Cl)nc(Cl)c1 [2,6-dichloroisonicotinic acid]
level of mRNA of the chimeric gene (GUS, AHAS or BT primer), primer extension assay [1]: elevated levels of mRNA

O=C(O)c1ccncc1 [INA, isonicotinic acid]
bioluminescence (imaging, photon counting) ([6]; compared to water-treated controls, D-luciferin 5 mM): strongly induced bioluminescence
luciferase activity, induction over controls ([6]; leaves sprayed with 0.15 g/ml for 48 h, analyzed five days later, Promega Luciferase Assay System): 144 fold

O=C(OCc1ccccc1)c1cccc2nnsc12 [benzyl benzo-1,2,3-thiadiazole-7-carboxylate]
level of mRNA of the chimeric gene (GUS, AHAS or BT primer), primer extension assay [1]: elevated levels of mRNA

CCCOC(=O)c1cccc2nnsc12 [n-propyl benzo-1,2,3-thiadiazole-7-carboxylate]
level of mRNA of the chimeric gene (GUS, AHAS or BT primer), primer extension assay [1]: elevated levels of mRNA
